Experiments:
[1] = system: ApoE−/− mice; experiment: Plasma cholesterol, triglyceride, glycerol and free fatty acid levels, ApoE−/− mice; format: in vivo
Excerpt: (§1) To study the effect of gut-derived serum or plasma serotonin on the development of atherosclerosis, two well-studied genetic mouse models of hypercholesterolemia and atherosclerosis were used, namely mice with deletions in both copies of the apoliprotein E gene (referred to as ApoE−/− mice) and mice carrying deletions of both copies of the low density lipoprotein receptor gene (LDLR−/− mice). These mice have elevated blood cholesterol levels due to a defect in hepatic clearance of cholesterol containing very low density lipoproteins and low density lipoproteins (Ishibashi et al., 1993, J. Clin. Invest. 92:883-893; Plump et al., 1992, Cell 71:343-353). To accelerate the process of atherosclerotic plaque development, the mice were placed on a high cholesterol rodent diet at 5 weeks of age and fed this diet for 12 weeks. During this period, the mice were orally administrated placebo (diluent) or LP-533401, an inhibitor of tryptophan hydroxylase 1 (TPH1), the key enzyme required for serum or plasma serotonin synthesis, at the dose of 200 mg per kg of body weight per day (FIG. 1).
(§2) Cholesterol, triglycerides, glycerol, and free fatty acids were measured in plasma from 4 hours fasted mice using commercially available kits (Cholesterol E, Wako, Cat. No. 439-17501; Triglycerides determination kit, Sigma, Cat. No. TR0100-1KT (measures both triglycerides and glycerol), HR Series NEFA-HR, Wako, Cat. No. 999-34691) according to the manufacturer's instructions.

[2] = system: ApoE−/− mice; experiment: Atherosclerotic plaque area in Oil Red O stained aortas, ApoE−/− mice; format: in vivo; conditions: vs placebo
Excerpt: as §1, with “During this period, the mice were orally administrated placebo (diluent) or LP-533401, an inhibitor of tryptophan hydroxylase 1 (TPH1), the key enzyme required for serum or plasma serotonin synthesis, at the dose of 200 mg per kg of body weight per day (FIG. 1).” left out
(§3) After 12 weeks of high cholesterol diet and administration of therapeutic agent or placebo, the mice were sacrificed to determine the amount of atheromas in their aortas. […] A quantitative computer-assisted image analysis (ImageJ) of the plaque staining areas was performed and correlated with the whole vessel wall areas.

[3] = system: LDLR−/− mice; experiment: Plasma cholesterol and triglyceride levels, LDLR−/− mice; format: in vivo; conditions: high cholesterol diet, vs placebo
Excerpt: as §1, with “During this period, the mice were orally administrated placebo (diluent) or LP-533401, an inhibitor of tryptophan hydroxylase 1 (TPH1), the key enzyme required for serum or plasma serotonin synthesis, at the dose of 200 mg per kg of body weight per day (FIG. 1).” left out
as §2

[4] = system: ApoE−/− mice; experiment: Plasma serotonin determination (ELISA), ApoE−/− mice; format: in vivo; conditions: high cholesterol diet 12 weeks, 200 mg per kg per day orally, vs placebo
Excerpt: as §1
Serotonin content in the plasma was determined using Serotonin research ELISA (IBL, Cat. No. IB89540) according to the manufacturer's instructions.

[5] = system: LDLR−/− mice; experiment: Atherosclerotic plaque area in Oil Red O stained aortas, LDLR−/− mice; format: in vivo; conditions: vs placebo
Excerpt: as §1, with “During this period, the mice were orally administrated placebo (diluent) or LP-533401, an inhibitor of tryptophan hydroxylase 1 (TPH1), the key enzyme required for serum or plasma serotonin synthesis, at the dose of 200 mg per kg of body weight per day (FIG. 1).” left out
as §3

[6] = system: wild type mice; experiment: Plasma cholesterol, triglyceride, glycerol and free fatty acid levels, wild type mice; format: in vivo; conditions: vs placebo
Procedure: as §2

[7] = system: adipose tissue explants; experiment: Adipose tissue explants, FFA and glycerol release on stimulation with serotonin; format: cell-based, mice; conditions: white adipose tissue explants, ex vivo
Procedure: (§4) Epigonadal fat pads were isolated from 8 week old wild type male mice, cut into 20 mg fragments, and placed in culture medium (DMEM low glucose, 0.1% bovine serum albumin, both from Invitrogen) in a cell incubator (37° C., 5% CO2 atmosphere) for 2 h. After this time, the fat explants were stimulated for 2 h with different concentrations of serotonin. Concentrations of free fatty acids (FFA) and glycerol were measured in the medium. For gene expression analysis, tissue was homogenized in TRIZOL® reagent (Sigma) and RNA was isolated according to the manufacturer's instructions. The RNA was used as a template for cDNA synthesis (cDNA synthesis kit, Invitrogen). The relative gene expression was quantified using Real Time PCR.

[8] = system: adipose tissue explants; experiment: Adipose tissue explants, mRNA expression of lipolysis genes (Real Time PCR); format: cell-based, mice; conditions: 25 μM serotonin, vs untreated control
Procedure: as §4

[9] = ApoE−/− mice fed high cholesterol diet, vs placebo
[10] = ApoE−/− mice fed normal rodent chow diet, vs placebo
[11] = 2 h stimulation, all tested concentrations

Nc1nc(OC(c2ccc(-c3cccc(F)c3)cc2)C(F)(F)F)cc(-c2ccc(C[C@H](N)C(=O)O)cc2)n1 (stereo partly drawn) [LP-533401] was tested, and the FFA levels [1, 9] was “reduced”, the glycerol levels [1, 9] was “reduced” and the FFA levels [1, 10] was “reduced”. The glycerol levels [1, 10] was “reduced”, the “cholesterol levels in plasma, reduced in comparison to placebo” value ([1]; ApoE−/− mice, high cholesterol diet, 200 mg per kg per day orally, 4 hours fasted) was 30% and the triglyceride levels ([1]; ApoE−/− mice, high cholesterol diet, vs placebo) was “does not alter triglyceride levels”. For the same compound, the “reduction of the area occupied by atherosclerotic plaques” value ([2]; high cholesterol diet 12 weeks, 200 mg per kg of body weight per day orally) was 44%, the “atheroma formation” value ([2]; FIG. 2) was “decreased atheroma formation” and the triglyceride levels [3] was “does not alter triglyceride levels”. For the same compound, the “reduction of plasma serotonin levels” value [4] was 80%, the “reduction in the amount of atherosclerotic plaques” value ([5]; high cholesterol diet 12 weeks, 200 mg per kg per day orally) was 40% and the “atheroma formation” value ([5]; FIG. 3) was “lowers atheroma formation”. The FFA levels [6] was “reduced”, the cholesterol levels [6] was “did not alter cholesterol levels” and the glycerol levels [6] was “reduced”. The triglyceride levels [6] was “lowers triglyceride levels”.
In the case of NCCc1c[nH]c2ccc(O)cc12 [serotonin, 5-hydroxytryptamine], the “concentration giving the highest stimulation of FFA and glycerol secretion” value [7] is reported as 25 µM, the “secretion of FFA from the adipose tissue” value [7, 11] is reported as “stimulated secretion” and the “secretion of glycerol from the adipose tissue” value [7, 11] is reported as “stimulated secretion”. The “expression levels of CGI58” value [8] was “does not influence the expression levels”, the “expression levels of GOS2” value [8] was “does not influence the expression levels” and the “expression levels of perilipin” value [8] was “does not influence the expression levels”. The “expression of adipose triglyceride lipase (ATGL)” value [8] was “does not affect” and the “expression of hormone sensitive lipase (HSL)” value [8] was “promotes the expression”.

Source: patent US20130338176A1, “METHODS OF PREVENTING AND TREATING HYPERLIPIDEMIA OR ATHEROSCLEROSIS” (The Trustees of Columbia University in the City of New York, priority 2010, published 2013)
